Data published in patent publication US20150368248A1, “2-SUBSTITUTED-6-BIARYLMETHYLAMINO-9-CYCLOPENTYL-9H-PURINE DERIVATIVES, USE THEREOF AS MEDICAMENTS, AND PHARMACEUTICAL COMPOSITIONS” (UNIVERZITA PALACKEHO V OLOMOUCI, priority 2013, published 2015).

Experiments:
[1] = tested on: HCC-1.2 (3p); test: MTT cytotoxicity assay (Example 30); format: cell-based; conditions: Homo sapiens, HCC-1.2, 72 h; MTT, three days after drug addition; read-out: Inhibitory concentration IC50, 3p
[2] = tested on: PLC/PRF/5; test: MTT cytotoxicity assay (Example 30); format: cell-based; conditions: Homo sapiens, PLC-PRF-5, 72 h; MTT, three days after drug addition; read-out: Inhibitory concentration IC50, PLC/PRF/5
[3] = tested on: HCC-1.1 (3sp); test: MTT cytotoxicity assay (Example 30); format: cell-based; conditions: Homo sapiens, 72 h; MTT, three days after drug addition; read-out: Inhibitory concentration IC50, 3sp
[4] = tested on: HUH-7; test: MTT cytotoxicity assay (Example 30); format: cell-based; conditions: Homo sapiens, Huh-7, 72 h; MTT, three days after drug addition; read-out: Inhibitory concentration IC50, HUH-7
[5] = target: T1, CDK1/cyclin B (Homo sapiens, UniProt P06493); test: Kinase inhibition assay, recombinant kinase, [γ-33P]ATP; format: biochemical; conditions: read-out: Kinase inhibition IC50, CDK1
T1 construct: made in house; host or cells: Sf9 insect cells (baculovirus)
Protocol: CDK2/Cyclin E kinase was produced in Sf9 insect cells via baculoviral infection and purified on a NiNTA column (Qiagen). CDK5/p35, CDK7Cyclin H/MAT1 and CDK9/Cyclin T1 was purchased from ProQinase GmbH. […] The reactions were stopped by adding 5 μL of 3% aq H3PO4. Aliquots were spotted onto P-81 phosphocellulose (Whatman), washed 3× with 0.5% aq H3PO4 and finally air-dried.
CDK1/cyclin B and CDK2/cyclin E kinases were produced in Sf9 insect cells via baculoviral infection, while CDK5/p35, CDK7/cyclin H/MAT1, and CDK9/cyclin T1 were purchased from ProQinase (Freiburg, Germany) and assayed as described previously (35). The kinase reactions were assayed with 1 mg/ml histone H1 (for CDK2 and CDK5) or (YSPTSPS)2KK peptide (for CDK7 and CDK9) in the presence of 15/0.15/1.5/1.5 […] ATP (for CDK2/CDK5/CDK7CDK9), […] [γ-^33P]ATP and of the test compound in a final volume of […]. The reaction buffer contained 60 mM HEPES-NaOH, pH 7.5, 3 mM MgCl2, 3 mM MnCl2, 3 mM Na-orthovanadate, 1.2 mM DTT, 2.5 mg/50 ml PEG20.000. The reactions were stopped by adding […] of 3% H3PO4. Aliquots were spotted onto P-81 phosphocellulose (Whatman, GE Healthcare Biosciences, Pittsburgh, USA), washed 3 times with 0.5% H3PO4 and finally air-dried. Kinase inhibition was quantified using a FLA-7000 digital image analyzer (Fujifilm, Tokyo, Japan).

[6] = tested on: caspase-3/7 activity in PLC/PRF/5 cell line; test: One-step cellular caspase-3/7 activity assay; format: cell-based, human; conditions: 24 hours incubation, relative to 0 nM = 1.00
How it was run: (§1)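 Hep3B or PLC/PRF/5 cells, plated overnight, were exposed to compounds for 24 h. Lysis buffer containing 150 μM Ac-DEVD-AMC substrate was added, and plates were incubated at 37° C. Caspase-3/7 activity was read as AMC fluorescence (ex 346/em 442 nm) after 6 h.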

[7] = tested on: caspase-3/7 activity in Hep3B cell line; test: One-step cellular caspase-3/7 activity assay; format: cell-based, human; conditions: 24 hours, 0 nM = 1.00
How it was run: as §1

[8] = tested on: Hep3B; test: MTT cytotoxicity assay (Example 30); format: cell-based, human; conditions: Homo sapiens, Hep3B, 72 h; MTT, three days after drug addition; read-out: Inhibitory concentration IC50, Hep3B

T1 sequence (P06493 whole entry, species assumed): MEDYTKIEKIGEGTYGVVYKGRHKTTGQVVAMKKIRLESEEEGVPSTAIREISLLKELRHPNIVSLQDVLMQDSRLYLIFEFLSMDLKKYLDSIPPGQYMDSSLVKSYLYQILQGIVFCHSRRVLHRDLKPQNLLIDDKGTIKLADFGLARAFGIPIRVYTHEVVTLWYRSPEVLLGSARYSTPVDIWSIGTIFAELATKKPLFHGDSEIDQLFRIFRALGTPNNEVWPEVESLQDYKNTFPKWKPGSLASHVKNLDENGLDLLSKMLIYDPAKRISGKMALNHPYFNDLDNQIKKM
T1 sequence (P14635 whole entry partner, species assumed): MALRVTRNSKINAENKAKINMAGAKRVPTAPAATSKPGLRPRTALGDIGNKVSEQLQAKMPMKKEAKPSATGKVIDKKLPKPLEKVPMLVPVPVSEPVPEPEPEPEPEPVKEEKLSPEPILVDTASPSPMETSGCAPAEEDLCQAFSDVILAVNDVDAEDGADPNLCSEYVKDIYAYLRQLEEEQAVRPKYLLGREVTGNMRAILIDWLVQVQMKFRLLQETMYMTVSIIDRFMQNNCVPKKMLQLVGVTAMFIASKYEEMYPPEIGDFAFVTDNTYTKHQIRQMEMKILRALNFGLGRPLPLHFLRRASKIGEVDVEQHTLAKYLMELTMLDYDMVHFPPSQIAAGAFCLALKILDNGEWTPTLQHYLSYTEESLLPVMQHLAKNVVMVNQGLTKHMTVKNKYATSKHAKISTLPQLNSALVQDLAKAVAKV

Row | Compound | IC50 [1] [nM] | IC50 [2] [nM] | IC50 [3] [nM] | IC50 [4] [nM] | IC50 [5] [nM] | Relative caspase-3/7 activity in PLC/PRF/5 cell line ([6]; compound concentration 40 nM) | Relative caspase-3/7 activity in PLC/PRF/5 cell line ([6]; compound concentration 80 nM) | Relative caspase-3/7 activity in PLC/PRF/5 cell line ([6]; compound concentration 160 nM) | Relative caspase-3/7 activity in PLC/PRF/5 cell line ([6]; compound concentration 320 nM) | Relative caspase-3/7 activity in PLC/PRF/5 cell line ([6]; compound concentration 640 nM) | Relative caspase-3/7 activity in PLC/PRF/5 cell line ([6]; compound concentration 1280 nM) | Relative caspase-3/7 activity in Hep3B cell line ([7]; 200 nM) | Relative caspase-3/7 activity in Hep3B cell line ([7]; 400 nM) | Relative caspase-3/7 activity in Hep3B cell line ([7]; 800 nM) | Relative caspase-3/7 activity in Hep3B cell line ([7]; 1600 nM) | melting point [°C] | IC50 [8] [nM] | Relative caspase-3/7 activity in Hep3B cell line ([7]; 100 nM)
1 | Nc1ccccc1-c1ccc(CNc2nc(NC3CCC(N)CC3)nc3c2ncn3C2CCCC2)cc1 (stereo not shown) [BP32, N^2-(4-amino-cyclohexyl)-9-cyclopentyl-N^6-(2′-amino-biphenyl-4-ylmethyl)-9H-purine-2,6-diamine] | 543 | 122 | 687 | 647 | 152 | 0.62 | 1.00 | 0.69 | 2.01 | >5.00 | >5.00 | 0.70 | 1.15 | 2.48 | 7.53 | 168 to 170 | 400 | 
2 | NC1CCC(Nc2nc(NCc3ccc(-c4ccsc4)nc3)c3ncn(C4CCCC4)c3n2)CC1 (stereo not shown) [BP35, N^2-(4-amino-cyclohexyl)-9-cyclopentyl-N^6-(6-thiophen-3-yl-pyridin-3-ylmethyl)-9H-purine-2,6-diamine] | 218 | 37 | 328 | 257 | 169 | 1.10 | 2.37 | 2.97 | >5.00 | >5.00 | >5.00 | 1.01 | 5.59 | 6.07 | 9.10 | 139 to 140 | 207 | 
3 | NC1CCC(Nc2nc(NCc3ccc(-c4ccoc4)nc3)c3ncn(C4CCCC4)c3n2)CC1 (stereo not shown) [BP36, N^2-(4-amino-cyclohexyl)-9-cyclopentyl-N^6-(6-furan-3-yl-pyridin-3-ylmethyl)-9H-purine-2,6-diamine] | 258 | 18 | 424 | 332 | 66 | 2.34 | >5.00 | >5.00 | >5.00 | >5.00 | >5.00 | 6.19 | 6.55 | 9.80 | 9.75 | 165 to 167 | 130 | 2.67
